Where “and” joins values, the source holds several entries; their conditions need not be identical. Equal values may be shown once.
In order of falling melting point:
1. CCC(=O)O[C@]1(C(=O)SCF)[C@H](C)C[C@H]2[C@@H]3C[C@H](F)C4=CC(=O)C=C[C@]4(C)[C@@]3(F)[C@@H](O)C[C@@]21C [Fluticasone Propionate]  272 °C
2. O=c1ncn2nc(Sc3ccccc3)ccc2c1-c1c(Cl)cccc1Cl  264 °C
3. CC(=O)O[C@@]12CO[C@@H]1C[C@H](O)[C@@]1(C)C(=O)[C@H](O)C3=C(C)[C@@H](OC(=O)[C@H](O)[C@@H](NC(=O)OC(C)(C)C)c4ccccc4)C[C@@](O)([C@@H](OC(=O)c4ccccc4)[C@H]21)C3(C)C [Docetaxel]  232 °C
4. O=C(O)c1ccc(O)cc1 [4-hydroxybenzoic_acid]  217 °C
5. Oc1ccc(Br)cc1-c1ccno1 [4-bromo-2-(5-isoxazolyl)phenol]  211 °C
6. Cc1cc(C)nc(NS(=O)(=O)c2ccc(N)cc2)n1 [sulfamethazine]  200 °C
7. c1ccc2c(c1)cc1ccc3cccc4ccc2c1c34 [Benzo[pqr]tetraphene]  176 °C
8. NNC(=O)c1ccncc1 [isoniazid]  171 °C
9. CCC(C)C1(CC)C(=O)NC(=O)NC1=O (stereo unspecified) [secbutabarbital]  166 °C
10. O=c1ccn([C@@H]2O[C@@H](CO)[C@H](O)[C@H]2O)c(=O)[nH]1 [Uridine]  165 °C
11. N/C(N)=N/c1nc(CSCCC(N)=N/S(N)(=O)=O)cs1 [Famotidine]  164 °C
12. Cc1ccccc1B(O)O [2-methylbenzeneboronic acid]  163 °C
13. CCCOC1CCC2(C)C(CC(=O)C3C2CCC2(C)C(OCCC)CCC32)C1 (stereo unspecified) [3,17-dipropoxyandrostan-7-one]  163 °C
14. O=C(Nc1cccc(OC(=O)c2ccccc2)c1)c1ccccc1 [3-(benzoylamino)phenyl benzoate]  153 °C
15. OB(O)c1c(Cl)cccc1Cl [2,6-dichlorobenzeneboronic acid]  152 °C
16. CC1(C)CC(=O)CC(=O)C1 [5,5-Dimethylcyclohexane-1,3-dione]  148 °C
17. CC1(C)CC(=O)CC(=O)C1 [dimedone]  148 °C
18. CC(=O)Nc1ccccc1S(C)(=O)=O [2'-(methylsulfonyl)acetanilide]  145 °C
19. COC(=O)C12C=CC(CC1)C1C(=O)OC(=O)C12 (stereo unspecified)  117 °C
20. CC(=O)OCC1OC(C#N)=CC(OC(C)=O)C1OC(C)=O (stereo unspecified)  114 °C
21. O=C(O)c1c(F)c(F)c(F)c(F)c1F [pentafluorobenzoic acid]  102 °C
22. CCCc1ccc(C(=O)Oc2ccc(C#N)cc2)cc1 [4-cyanophenyl 4-n-propylbenzoate]  102 °C
23. CSc1ccc(CC(=O)O)cc1 [4-(methylthio)phenylacetic acid]  100 °C
24. Nc1ccc(Cl)cc1C(=O)c1ccccc1 [2-amino-5-chlorobenzophenone]  98 °C
25. CCOC(=O)Cc1c(C)n(C(=O)c2ccc(Cl)cc2)c2ccc(OC)cc12 [Indomethacin ethyl ester]  96 °C
26. Cc1cc(Cl)c(C)cc1N [4-chloro-2,5-dimethylaniline]  92 °C
27. CC(C)(C)OC(=O)N[C@H](CO)C(=O)O [N-boc-D-serine]  90 °C
28. c1ccc2c(c1)oc1ccccc12 [dibenzofuran]  82 °C
29. Clc1ccc(-c2ccccc2)cc1 [PCB-3]  78 °C
30. COC(=O)c1ccc([N+](=O)[O-])cc1Cl [methyl 2-chloro-4-nitrobenzoate]  76 °C
31. NNc1c(F)c(F)c(F)c(F)c1F [pentafluorophenylhydrazine]  76 °C
32. COC(=O)c1ccc(CC#N)cc1 [methyl_p-cyanomethyl_benzoate]  64 °C
33. COc1ccc2c(OC)cccc2c1 [1,6-dimethoxynaphthalene]  59 °C
34. OCC(O)COc1ccccc1 (stereo unspecified) [3-phenoxy-1,2-propanediol]  58 °C
35. S=C=Nc1cccc2ccccc12 [1-Isothiocyanatonaphthalene]  58 °C
36. CC(C)(C)OC(=O)N1CCNCC1 [1-boc-piperazine]  46 °C
37. O=Cc1ccccc1[N+](=O)[O-] [2-nitrobenzaldehyde]  45 °C
38. C(=NC1CCCCC1)=NC1CCCCC1 [N,N'-dicyclohexylcarbodiimide]  35 °C
39. CCOC(=O)/C=C(/C)N [ethyl 3-aminocrotonate]  32 °C
40. FC(F)(F)c1ccccc1CBr [2-(trifluoromethyl)benzyl bromide]  29 °C
41. CCCCCCCCCCCCC=O [tridecanal]  15 °C
42. Brc1cnc2ccccc2c1 [3-bromoquinoline]  14 °C
43. CCCCCc1ccc(-c2ccccc2)cc1 [4-n-pentylbiphenyl]  10 °C
44. O=[N+]([O-])c1c(F)cc(F)cc1F [1,3,5-trifluoro-2-nitrobenzene]  4 °C
45. N#CCCCCCCC#N [1,6-dicyanohexane]  -3 °C
46. C=Cc1cccc([N+](=O)[O-])c1 [1-Nitro-3-vinylbenzene]  -5 °C
47. [O-][Cl+3]([O-])([O-])O [Perchloric acid]  -17 °C
48. C1=CCCC=CCC1 [1,5-cyclooctadiene]  -69 °C
49. C=Cc1ccccc1C [2-methylstyrene]  -69 °C
50. CCCN(CCC)CCC [N,N-Dipropylpropan-1-amine]  -93.5 °C

In the case of `O=[N+]([O-])c1ccc(Cl)c(Cl)c1Cl` [2,3,4-trichloronitrobenzene], the melting point is reported as 56 °C and 55.5 °C.
